Laboratory results: patent US4892865A, “Pyrrolo[2,3-d]pyrimidine nucleosides as antiviral agents” (The Regents of the University of Michigan, priority 1987, dated 1990)
pIC50: −log10 of the molar value. Where two headings read alike, the source gives them in different places.

Tests used:
[1] = tested on: Human Cytomegalovirus (HCMV); test: HCMV plaque reduction in HFF cells; assay type: cell-based, HCMV (Towne strain, isolate PO); human foreskin fibroblasts; conditions: read-out: 50% Inhibitory Concentration, Virus Tested: HCMV
Experimental: (§1) KB cells, an established human cell line derived from an epidermoid oral carcinoma, were routinely grown in minimal essential medium (MEM) with Hanks salts [MEM(H)] supplemented with 5% fetal bovine serum. African green monkey kidney (BSC-1) cells and diploid human foreskin fibroblasts (HFF cells) were grown in MEM with Earle's salts [MEM(E)] supplemented with 10% fetal bovine serum. Cells were passaged according to conventional procedures as described in Shipman, C., Jr.; Smith, S. H.; Carlson, R. H.; Drach, J. C. Antimicrob. Agents Chemother., 1976, 9, 120. The plaque-purified isolate, PO, of the Towne strain of HCMV was used in all experiments and was a gift of Dr. Mark Stinski, University of Iowa. The S-148 strain of HSV-1 was provided by Dr. T. W. Schafer of Schering Corp. Stock preparations of HCMV and HSV-1 were prepared and titered as described in Turk, S. R.; Shipman, C., Jr.; Nassari, R.; Genzlinger, G.; Krawczyk, S. H.; Townsend, L. B.; Drach, J. C. Antimicrob. Agents Chemother., 1987, 31, 544.
(§2) HCMV plaque reduction experiments were performed using monolayer cultures of HFF cells by a procedure similar to that referenced above for titration of HCMV, with the exceptions that the virus inoculum (0.2 ml) contained approximately 50 PFU of HCMV and the compounds to be assayed were dissolved in the overlay medium. HSV-1 plaque reduction experiments were performed using monolayer cultures of BSC-1 cells. The assay was performed exactly as referenced above for HSV-1 titration assays except that the 0.2 ml of virus suspension contained approximately 100 PFU of HSV-1 and the compounds to be tested were dissolved in the overlay medium.
(§3) Dose-response relationships were constructed by linearly regressing the percent inhibition of parameters derived in the preceding sections against log drug concentrations. 50% inhibitory (I50) concentrations were calculated from the regression lines. The three I50 concentrations for inhibition of DNA, RNA and protein synthesis were averaged to give the values reported in Table I for KB cell cytotoxicity. Samples containing positive controls (acyclovir, ganciclovir, or vidarabine) were used in all assays. Results from sets of assays were rejected if inhibition by the positive control deviated from its mean response by more than 1.5 standard deviations.

[2] = tested on: Herpes Virus Type 1 (HSV-1); test: HSV-1 plaque reduction in BSC-1 cells; assay type: cell-based; conditions: read-out: 50% Inhibitory Concentration, Virus Tested: HSV-1
Experimental: as §1, §2, §3
^a In experiments with HSV1 both the HF and 148 strains were used.

[3] = Visual cytotoxicity in uninfected HFF cells; assay type: cell-based; conditions: human; visual cytotoxicity scored on uninfected HFF cells at time of HCMV plaque determination; read-out: 50% Inhibitory Concentration, Cytotoxicity: HFF
Experimental: as §1
(§4) Two basic tests for cellular cytotoxicity were routinely employed for compounds examined in antiviral assays. Cytotoxicity produced in HFF and BSC-1 cells was estimated by visual scoring of cells not affected by virus infection in the plaque reduction assays described above. Cytopathology was estimated at 35- and 60-fold magnification and scored on a zero to four plus basis on the day of staining for plaque enumeration. Cytotoxicity in KB cells was determined by measuring the effects of compounds on the incorporation of radioactive precursors into DNA, RNA and protein as described in Turk, S. R.; Shipman, C., Jr.; Nassari, R.; Genzlinger, G.; Krawczyk, S. H.; Townsend, L. B.; Drach, J. C. Antimicrob. Agents Chemother., 1987, 31, 544.
as §3
(§5) ^b Visual cytotoxicity scored on uninfected HFF or BSC cells at time
(§6) of HCMV or HSV1 plaque determination.

[4] = Visual cytotoxicity in uninfected BSC-1 cells; assay type: cell-based; conditions: african green monkey, visual cytotoxicity scored on uninfected BSC cells at time of HSV1 plaque determination, read-out: 50% Inhibitory Concentration, Cytotoxicity: BSC
Experimental: as §1, §4, §3, §5, §6

[5] = Cytotoxicity in KB cells (inhibition of DNA, RNA and protein synthesis); assay type: cell-based; conditions: human, average of inhibition of DNA, read-out: 50% Inhibitory Concentration, Cytotoxicity: KB
Experimental: as §1, §4, §3
^c Average percent inhibition of DNA, RNA and protein synthesis
determined in KB cells as described in the text.

[6] = tested on: Human Immunodeficiency Virus Type 1 (HIV-1); test: CPE-inhibition assay with HIV-1 in ATH8 cells; assay type: cell-based; conditions: Human immunodeficiency virus 1, ATH-8, 240 h, read-out: 50% Inhibitory Concentration, Virus Tested: HIV
Experimental: (§7) The human OKT4^+ T-cell clone, ATH8, was obtained from Dr. Samuel Broder's laboratory (NCI) through Dr. Hiroaki Mitsuya. These cells are propagated in RPMI 1640 medium supplemented with 4 mM glutamine, 15% heat-inactivated fetal bovine serum, antibiotics (50 units of penicillin and 50 μg of streptomycin per ml), and 50 units of recombinant-derived human interleukin-2 (ala-125; AMGen Biologicals) per ml. […]
The testing of compounds for antiviral activity employed the modified CPE-inhibition assay described in Mitsuya, H.; Weinhold, K. J.; Furman, P. A.; St. Clair, M. H.; Lehrman, S. N.; Gallo, R. C.; Bolognesi, D.; Barry, D. W.; Broder, S. Proc. Natl. Acad. Sci. USA, (1985) 82, 7096 and Mitsuya, H.; Broder, S. Proc. Natl. Acad. Sci. USA, 1986, 83 1911. […] The protective effect of test compounds was assessed by adding them at varying concentrations to the cultured cells at the time of virus infection, then monitoring the status of the cell pellet.
(§8) ATH8 cells were used as the primary targeted cells in the HIV-induced CPE-inhibition assay. […] These compounds were evaluated at seven half-log dilutions. […] On day 10 post-infection aliquots were taken from individual wells and the total cell number and cell viability (based on trypan-blue dye exclusion) determined. […]

[7] = Cytotoxicity in ATH8 cells (total cell number and viability, trypan-blue dye exclusion); assay type: cell-based; conditions: human; uninfected ATH8 cells; read-out: 50% Inhibitory Concentration, Cytotoxicity: ATH8
Experimental: as §7, with “ml. The clone H9 cell lines, an OKT4^+ human T-cell line which is permissive for HIV replication but largely resistant to virus-induced CPE, H9 cells productively infected with the HTLV-IIIB strain of HIV, and H9 cells productively infected with the RF-II Haitian variant of HIV have been obtained from Dr. Robert Gallo's laboratory (NCI) through Dr. Howard Streicher.” for “ml.”
as §8
Dose-response relationships were constructed by linearly regressing the percent inhibition of parameters derived in the preceding sections against log drug concentrations. 50% inhibitory (I50) concentrations were calculated from the regression lines. […]

[8] = Human betaherpesvirus 5, plaque reduction, HFF cells
[9] = Human alphaherpesvirus 1, in Chlorocebus sabaeus, plaque reduction, BSC-1 cells, both the HF and 148 strains were used
[10] = Human alphaherpesvirus 1, BSC-1, in Chlorocebus sabaeus

| Compound | pIC50 [1, 8] | pIC50 [2, 9] | CC50 [3] [µM] | CC50 [4] [µM] | pIC50 ([1]; Human betaherpesvirus 5, HFF) | pIC50 [2, 10] | CC50 [5] [µM] | pIC50 ([6]; ATH8 cells, day 10 post-infection) | CC50 [7] [µM] | pIC50 [6] |
| --- | --- | --- | --- | --- | --- | --- | --- | --- | --- | --- |
| Nc1ncnc2c1ccn2[C@H]1C=C[C@@H](CO)O1 [Dideoxydidehydrotubercidin, 4-amino-7(2',3'-dideoxy-2',3'-didehydro-β-ribofuranosyl)-pyrrolo[2,3-d] pyrimidine] | < 4.00 | < 4.00 | > 100 | > 100 |  |  |  |  |  |  |
| NC(=O)c1cn([C@H]2C=C[C@@H](CO)O2)c2ncnc(N)c12 [Dideoxydidehydrosangivamycin, 4-amino-7-(2',3'-dideoxy-2',3'-didehydro-β-D-ribofuranosyl)-pyrrolo-[2,3-d]pyrimidine-5-carboxamide] |  |  | > 100 | > 100 | < 4.00 | < 4.00 | 54 |  |  |  |
| N#Cc1cn([C@H]2CC[C@@H](CO)O2)c2ncnc(N)c12 [Dideoxytoyocamycin, 4-amino-5-cyano-7-(2',3'-dideoxy-β-D-ribofuranosyl)-pyrrolo-[2,3-d]-pyrimidine] | 4.74 | 4.68 | > 100 | > 100 |  |  | 54 | 5.52 | 100 |  |
| NC(=O)c1cn([C@H]2CC[C@@H](CO)O2)c2ncnc(N)c12 [Dideosysangivamycin, 4-amino-7-(2',3'-dideoxy-β-D-ribofuranosyl)pyrrolo[2,3-d]-pyrimidine-5-carboxamide] |  |  | > 100 | > 100 | < 4.00 | < 4.00 | > 100 |  | 100 | 5.52 |
| N#Cc1cn([C@H]2C=C[C@@H](CO)O2)c2ncnc(N)c12 [Dideoxydidehydrotoyocamycin, 4-amino-5-cyano-7-(2',3'-dideoxy-2',3'-didehydro-β-D-glycero-pentofuranosyl)-pyrrolo[2,3-d]pyrimidine] | 5.29 | 4.39 | > 100 | > 100 |  |  | > 100 |  |  |  |
| Nc1ncnc2c1ccn2[C@H]1CC[C@@H](CO)O1 [Dideoxytubercidin, 4-amino-7-(2',3'-dideoxy-β-D-ribofuranosyl)pyrrolo[2,3-d]-pyrimidine] | < 4.00 | < 4.00 | > 100 | > 100 |  |  |  |  |  |  |
